From ChEMBL document CHEMBL4385594, “4(3H)-Quinazolinone derivatives: Promising antibacterial drug leads” (Eur J Med Chem, 2019)
Values after ≈ are worked out from the molar mass of the structure shown. One block for each molecule: values may come before it.

Assays:
Staphylococcus aureus [1] = test: Antibacterial activity against Staphylococcus aureus assessed as reduction in bacterial cell growth at 0.03 to 64 ug/ml incubated for 16 to 18 hrs by CLSI broth dilution method; assay type: functional
Acinetobacter baumannii [2] = test: Antibacterial activity against multidrug-resistant Acinetobacter baumannii assessed as reduction in bacterial cell growth incubated for 24 hrs by broth dilution method; assay type: functional
[3] = Cytotoxicity against human HepG2 cells assessed as reduction in cell viability at 0 to 50 uM incubated for 48 hrs by MTT assay; assay type: cell-based; conditions: read-out: LD50
Acinetobacter baumannii [4] = test: Antibacterial activity against Acinetobacter baumannii 1646 infected in mouse model of peritonitis assessed as increase in survival rate at 2 mg/kg, ip dosed at 1 hr post infection (reference value: 66%); assay type: functional; conditions: Acinetobacter baumannii, 1646, ip
Escherichia coli = test: Antibacterial activity against Escherichia coli assessed as diameter of zone inhibition at 100 ppm by disc diffusion method; assay type: functional; conditions: read-out: DIZ
Staphylococcus aureus [5] = test: Antibacterial activity against Staphylococcus aureus assessed as diameter of zone inhibition at 100 ppm by disc diffusion method; assay type: functional; conditions: read-out: DIZ
MCF7 = test: Cytotoxicity against human MCF7 cells assessed as reduction in cell viability at 0.1 to 100 uM by MTT assay; assay type: functional, cell-based
Staphylococcus aureus [6] = test: Antibacterial activity against methicillin-resistant Staphylococcus aureus assessed as reduction in bacterial cell growth at 0.5 to 512 ug/ml incubated for 24 hrs by CLSI broth microdilution method; assay type: functional
Helicobacter pylori = test: Antibacterial activity against Helicobacter pylori assessed as reduction in bacterial cell growth by agar dilution method; assay type: functional
Staphylococcus aureus [7] = test: Antibacterial activity against Staphylococcus aureus; assay type: functional
Staphylococcus aureus [8] = test: Antibacterial activity against Staphylococcus aureus assessed as inhibition zone; assay type: functional
Staphylococcus aureus [9] = test: Antibacterial activity against Staphylococcus aureus NCIM 2901 assessed as reduction in bacterial cell growth at 0.03 to 64 ug/ml incubated for 16 to 18 hrs by CLSI broth microdilution method; assay type: functional
Bacillus subtilis = test: Antibacterial activity against Bacillus subtilis MTCC 441 assessed as reduction in bacterial cell growth at 0.03 to 64 ug/ml incubated for 16 to 18 hrs by CLSI broth microdilution method; assay type: functional
Pseudomonas aeruginosa = test: Antibacterial activity against Pseudomonas aeruginosa NCIM 2036 assessed as reduction in bacterial cell growth at 0.03 to 64 ug/ml incubated for 16 to 18 hrs by CLSI broth microdilution method; assay type: functional

MIC (Staphylococcus aureus [1]): > 64 µg/mL
Structure (SMILES): CN(C)/C=C/c1nc2ccccc2c(=O)n1-c1cccc(C(=O)NC2CC2)c1

Structure (SMILES): CNc1nc(NCc2ccccc2)nc2cc(C)ccc12
MIC (Acinetobacter baumannii [2]): 0.5 µM (≈ 0.139 µg/mL) | CC50 at 48 h [3]: 23 µM | survival at 2 mg/kg (Acinetobacter baumannii [4]): 90%

Structure (SMILES): N#Cc1ccc(/C=C/c2nc3ccccc3c(=O)n2-c2ccc(O)cc2)cc1
MIC (Staphylococcus aureus [1]): 8 µg/mL (≈ 21.9 µM)

MIC (Staphylococcus aureus [1]): 8 µg/mL (≈ 18.7 µM)
Structure (SMILES): N#Cc1ccc(/C=C/c2nc3cccc(Cl)c3c(=O)n2-c2cccc(C(=O)O)c2)cc1

MIC (Staphylococcus aureus [1]): 0.5 µg/mL (≈ 1.16 µM)
Structure (SMILES): N#Cc1ccc(/C=C/c2nc3ccccc3c(=O)n2-c2cccc(C(=O)NC3CC3)c2)cc1

Structure (SMILES): Cc1nc2ccc(I)cc2c(=O)n1/N=C/c1cc(Br)cc(Br)c1O
zone of inhibition at 100 ppm (Escherichia coli): 16 mm | zone of inhibition at 100 ppm (Staphylococcus aureus [5]): 14 mm

MIC (Staphylococcus aureus [1]): 4 µg/mL (≈ 8.96 µM)
Structure (SMILES): N#Cc1ccc(/C=C/c2nc3ccccc3c(=O)n2-c2cccc(C(=O)N3CCCC3)c2)cc1

Structure (SMILES): Cc1nc2ccc(I)cc2c(=O)n1/N=C/c1cc(I)cc(I)c1O
zone of inhibition at 100 ppm (Escherichia coli): 16 mm | zone of inhibition at 100 ppm (Staphylococcus aureus [5]): 14 mm

Structure (SMILES): CNc1nc(NCc2ccccc2)nc2cc(Cl)ccc12
MIC (Acinetobacter baumannii [2]): 0.5 µM (≈ 0.149 µg/mL) | CC50 at 48 h [3]: 23 µM | survival at 2 mg/kg (Acinetobacter baumannii [4]): 90%

Structure (SMILES): CNc1nc(NCc2ccccc2)nc2ccc(Br)cc12
MIC (Acinetobacter baumannii [2]): 0.5 µM (≈ 0.172 µg/mL) | CC50 at 48 h [3]: 23 µM | survival at 2 mg/kg (Acinetobacter baumannii [4]): 90%

Structure (SMILES): CNc1nc(NCc2ccccc2)nc2cc(Br)ccc12
MIC (Acinetobacter baumannii [2]): 0.5 µM (≈ 0.172 µg/mL) | CC50 at 48 h [3]: 23 µM | survival at 2 mg/kg (Acinetobacter baumannii [4]): 90%

Structure (SMILES): Cn1cc[n+](C(Cn2cnc3ccccc3c2=O)c2cc3cc(Br)ccc3o2)c1 (stereo unspecified)
IC50 (MCF7): 0.57 to 1 µM

MIC (Staphylococcus aureus [1]): 8 µg/mL (≈ 17.3 µM)
Structure (SMILES): N#Cc1ccc(/C=C/c2nc3ccccc3c(=O)n2-c2cccc(C(=O)N3CCOCC3)c2)cc1

Structure (SMILES): Cc1nc2ccc(I)cc2c(=O)n1/N=C/c1cc(Cl)cc(Cl)c1O
zone of inhibition at 100 ppm (Escherichia coli): 16 mm | zone of inhibition at 100 ppm (Staphylococcus aureus [5]): 14 mm

MIC (Staphylococcus aureus [1]): 0.25 µg/mL (≈ 0.62 µM)
Structure (SMILES): C#CCOc1cccc(-n2c(/C=C/c3ccc(C#N)cc3)nc3ccccc3c2=O)c1

MIC (Staphylococcus aureus [1]): 4 µg/mL (≈ 8.69 µM)
Structure (SMILES): N#Cc1ccc(/C=C/c2nc3ccccc3c(=O)n2-c2cccc(C(=O)N3CCCCC3)c2)cc1

MIC (Staphylococcus aureus [1]): > 64 µg/mL
Structure (SMILES): Cc1nc2ccccc2c(=O)n1-c1cccc(C(=O)NC2CC2)c1

MIC (Staphylococcus aureus [1]): 2 µg/mL (≈ 4.91 µM)
Structure (SMILES): Cc1cccc2c(=O)n(-c3cccc(C(=O)O)c3)c(/C=C/c3ccc(C#N)cc3)nc12

Structure (SMILES): C#Cc1cccc(-n2c(/C=C/c3ccc(C#N)cc3)nc3ccccc3c2=O)c1
MIC (Staphylococcus aureus [1]): 0.5 µg/mL (≈ 1.34 µM)

Structure (SMILES): CNc1nc(NCc2ccccc2)nc2ccc(C)cc12
MIC (Acinetobacter baumannii [2]): 0.5 µM (≈ 0.139 µg/mL) | CC50 at 48 h [3]: 23 µM | survival at 2 mg/kg (Acinetobacter baumannii [4]): 90%

Structure (SMILES): O=c1c2ccc(F)cc2ncn1CC(O)Cn1cncn1 (stereo unspecified)
MIC (Staphylococcus aureus [6]): 8 µg/mL (≈ 27.7 µM)

Structure (SMILES): CNc1nc(NCc2ccccc2)nc2ccc(Cl)cc12
MIC (Acinetobacter baumannii [2]): 0.5 µM (≈ 0.149 µg/mL) | CC50 at 48 h [3]: 23 µM | survival at 2 mg/kg (Acinetobacter baumannii [4]): 90%

Structure (SMILES): COc1cc(/C=N/n2c(C)nc3ccc(I)cc3c2=O)cc(I)c1O
zone of inhibition at 100 ppm (Escherichia coli): 16 mm | zone of inhibition at 100 ppm (Staphylococcus aureus [5]): 14 mm

Structure (SMILES): C#CCOc1cccc(-n2c(/C=C/c3ccc(Cl)cc3)nc3ccccc3c2=O)c1
MIC (Staphylococcus aureus [1]): 32 µg/mL (≈ 77.5 µM)

Structure (SMILES): COc1cc(/C=N/n2c(C)nc3ccc(Br)cc3c2=O)cc(Br)c1O
zone of inhibition at 100 ppm (Escherichia coli): 16 mm | zone of inhibition at 100 ppm (Staphylococcus aureus [5]): 14 mm

MIC (Helicobacter pylori): 25 µg/mL (≈ 49.4 µM)
Structure (SMILES): Nc1nc(-n2c(-c3ccc([N+](=O)[O-])cc3)nc3ccccc3c2=O)nnc1-c1cccc(Cl)c1Cl

Structure (SMILES): Cn1cc[n+](C(Cn2cnc3ccccc3c2=O)c2cc3ccccc3o2)c1 (stereo unspecified)
IC50 (MCF7): 0.57 to 1 µM

MIC (Staphylococcus aureus [7]): 32 µg/mL (≈ 104 µM)
Structure (SMILES): Cc1ccc2c(c1)c(=O)n(-c1ccccc1)c1n[nH]c(=S)n21
inhibition zone (IZ) (Staphylococcus aureus [8]): 17 mm

MIC (Staphylococcus aureus [9]): 1.56 µg/mL (≈ 4.21 µM) | MIC (Bacillus subtilis): 1.56 µg/mL (≈ 4.21 µM) | MIC (Pseudomonas aeruginosa): 1.56 µg/mL (≈ 4.21 µM)
Structure (SMILES): Cc1ccccc1NC(=O)Nn1c(-c2ccccc2)nc2ccccc2c1=O

Structure (SMILES): CN(C)[C@@H]1C(O)=C(C(N)=O)C(=O)[C@@]2(O)C(O)=C3C(=O)c4c(O)cccc4[C@@](C)(O)[C@H]3C[C@@H]12 [TETRACYCLINE]
zone of inhibition at 100 ppm (Escherichia coli): 6 to 27 mm | zone of inhibition at 100 ppm (Staphylococcus aureus [5]): 12 to 24 mm
